Laboratory results as given in patent US10604476B2, “Fluorinated amide derivatives and their uses as therapeutic agents” (Trillium Therapeutics Inc., priority 2015, dated 2020).

Columns and labels:
[1] = system: fully kindled (stage 5) seizures, amygdala kindled rat; assay: Amygdala kindled rat model; assay type: in vivo; details: <60 mg/kg i.p.
From the text: Amygdala kindling model is an animal model for complex partial seizures, which is the most common type of epilepsy in adults and is often drug resistant.

[2] = system: corneal kindled seizures; assay: Corneal kindling mouse model; assay type: in vivo
From the text: Mice are kindled electrically with 3 sec stimulation, 8 mA, 60 Hz, and corneal electrodes to a criterion of 10 consecutive Stage 5 seizures (facial clonus and head nodding progressing to forelimb clonus, and finally rearing and falling accompanied by a generalized clonic seizure as described by Racine). Stage 5 is generally reached after twice daily stimulation for 8 days. With continued stimulation once a day, animals usually progress to a reproducible Stage 5 after 10-14 additional days. At least 72 hours after the mice have been kindled, the test substance is administered either i.p. or p.o. and, at the previously determined TPE, each animal is given the electrical stimulus indicated above. Following stimulation, the animals are observed for the presence or absence of the rearing and falling criteria of a Stage 5 seizure. Treated animals not displaying a Stage 3, 4, or 5 seizure are considered protected. The dose of the test substance is varied between the limits of 0 and 100% efficacy, and the ED50 and 95% confidence intervals calculated by probit analysis. Mean values and the S.E.M. are calculated for the length of clonus and seizure duration and p values are determined by the Student's t-test.

[3] = system: mEC-HC slice from KA-treated rats; assay: Spontaneously bursting hippocampal slice in vitro model; assay type: cell-based, rat; details: 100 μM, FIG. 2
From the text: An in vitro screen uses the medial entorhinal cortex-hippocampal (mEC-HC) slice obtained from kainic acid (KA)-treated animals to identify compounds that may be effective in pharmacoresistant epilepsy. Systemic KA treatment in rats is an accepted model of temporal lobe epilepsy (TLE), where an initial insult results in status epilepticus and is followed by a sustained latent period that subsequently gives way to the development of spontaneous seizures. […] Moreover, the mEC-HC slices obtained from KA-treated rats are hyperexcitable in normal artificial cerebrospinal fluid (ACSF) solution as early as one week following KA-induced SE. Thus, this test screens investigational compounds for any potential efficacy against pharmacoresistant TLE. […]
Kainic acid administration/low dose: Animals were treated with Kainic Acid (Tocris, 0222) following a modified protocol described previously (Hellier et al 1998). Seizure activity is scored throughout KA administration using the Racine scale (Racine, 1972). […] Once stage 4-5 seizures are observed, injections cease and the number and stage of seizures observed are recorded on seizure score sheets. The animals are observed and seizures recorded for a minimum of 3.5 h. […]

[4] = system: cold allodynia; assay: Spinal nerve injury (SNI) model, acetone test; assay type: in vivo, rat
From the text: The SNI model of neuropathic pain was developed in rats using the procedure described by Decostered and Woolf, Pain 2000, 87: 149-158. Under isoflurane anesthesia, the skin on the lateral surface of the thigh was incised and a section was made directly through the biceps femoris muscle exposing the sciatic nerve and its three terminal branches: the sural, common peroneal and tibial nerves. The common peroneal and the tibial nerves were tight-ligated with 6-0 suture and sectioned distal to the ligation, removing 2-4 mm of the distal nerve stump. Extreme care was taken to avoid any contact with or stretching of the intact sural nerve. Following surgery, hemostasis was confirmed and the muscles were sutured in layers using 4-0 suture and the skin was closed with 4-0 suture and metal clips. Cold allodynia was assessed by using the acetone test. In this test, 25 μl of acetone is sprayed on to the plantar surface of the hind paw. Evaporation of acetone causes cooling of the skin. The cold stimulus sets up nociceptive responses from the injured paw as evidenced by paw lifting, paw licking and grooming. The duration of the nociceptive responses is noted.

Row | SMILES | suppression of fully kindled (stage 5) seizures compared to vehicle controls [1] | Average Seizure ([2]; 35 mg/kg) | N/F, number of animals active over the number tested ([2]; 35 mg/kg) | Average Seizure ([2]; 70 mg/kg) | N/F, number of animals active over the number tested ([2]; 70 mg/kg) | Average Seizure ([2]; 140 mg/kg) | N/F, number of animals active over the number tested ([2]; 140 mg/kg) | Average Seizure ([2]; 300 mg/kg) | N/F, number of animals active over the number tested ([2]; 300 mg/kg) | ED50 ([2]; Mus musculus, corneal kindled mice, read-out: ED50, reduction of seizure score (seizure severity)) [mg/kg] | network hyperexcitability (spontaneous burst activity and duration) [3] | cold allodynia in the neuropathic rats [4]
1 | C[C@@H](Oc1cc(Cl)cc(C(F)(F)F)c1)C(N)=O [I(D), (2R)-2-[3-chloro-5-(trifluoromethyl)-phenoxy]propanamide] | dose related suppression | 5 | 0/8 | 4.6 | 1/8 | 2.4 | 5/8 | 0.8 | 8/8 | 70.4 ± 1 | effectively suppressed | 
2 | NC(=O)COc1cc(C(F)(F)F)cc(C(F)(F)F)c1 [I(F), 2-[3,5 bis(trifluoromethyl)-phenoxy]acetamide;] |  |  |  |  |  |  |  |  |  |  |  | significantly reduced
